This test has as its system HC11-NeuT mammary tumors. Put plainly: In vivo efficacy in orthotopic HC11-NeuT mammary tumor model. Also noted: species or system Balb/c mice. The conditions noted are these: intravenous, 10 mg/kg body weight. An excerpt: HC11 cells were infected with the pBabe-puro retrovirus as described in Morgenstern and Land (1990) Nucl. Acids Res. 18:3587-3596. Cells were either infected with the pBabe-puro encoding oncogenic NeuT (pBabe-puro NeuT) or control pBabe-puro. In this case, oncogenic activation is by the ErbB2 receptor tyrosine kinase (RTK). The receptor is constitutively activated in a ligand-independent manner due to spontaneous dimerization.
High-titer, helper-free recombinant retroviruses were produced from BOSC-23 cells transiently transfected with plasmid DNA, using the CaPO4 technique, as described in Pear et al. (1993) Proc. Natl. Acad. Sci. 90:8392-8396. HC11 cells were infected by exposure to filtered conditioned medium from 24-48 h transfected BOSC-23 cultures, in the presence of 40 μg/ml polybrene. One day later the medium was replaced with fresh virus-containing medium. Cells were trypsinized, split 1:2 into HC11 growth medium containing 0.75 μg/ml puromycin and selected for 3-4 days. One day before harvesting, the cells were cultured in the absence of puromycin, trypsinized cells were washed, resuspended at 0.5-1.0×10^6 cells/10 μl PBS and implanted in the fat pad as described in below.
All experiments were performed with Balb/c mice. Transplants were performed on 8-10 week-old females. The anesthetized mouse was pinned on a cork board and scrubbed with 70% ethanol. […]

In the case of `CC(=O)O[C@H]1C(=O)[C@@]2(C)[C@H]([C@H](OC(=O)c3ccccc3)[C@]3(O)C[C@H](OC(=O)[C@H](O)[C@@H](NC(=O)c4ccccc4)c4ccccc4)C(C)=C1C3(C)C)[C@]1(OC(C)=O)CO[C@@H]1C[C@@H]2O` [Taxol], the “reduction of tumor growth or cell proliferation” value is “no significant reduction”.

(Values after patent US20050214220A1, “Tumor model” (vivoPharm Pty Ltd., priority 2004, published 2005).)
